Assay results as given in US20030109532A1, “Modulators of dopamine neurotransmission” (priority 2002, published 2003).
Structures can show the parent of a compound that is named as a salt.

Key:
[1] = tested on: 3,4-dihydroxyphenylacetic acid (DOPAC) in the striatum; assay: In vivo test: neurochemistry, 3,4-dihydroxyphenylacetic acid (DOPAC) in the striatum; set-up: species or system rat; conditions: 100 μmol/kg s.c., n=4
Text: (§1) In vivo Test: Neurochemistry
(§2) After the behavioral activity sessions the rats were decapitated and their brains rapidly taken out and put on an ice-cold petri-dish. The limbic forebrain, the striatum, the frontal cortex and the remaining hemispheral parts of each rat were dissected and frozen. Each brain part was subsequently analyzed with respect to its content of monoamines and their metabolites. The monoaminergic indices analyzed were dopamine (DA), 3,4-dihydroxyphenylacetic acid (DOPAC), homovanillic acid (HVA), 3-methoxytyramine (3-MT), serotonin (5-HT), 5-hydroxyindole acetic acid (5-HIAA), and noradrenaline (NA). All monoaminergic indices in the dissected tissue were analyzed by means of HPLC with electrochemical detection as described by Svensson K, et al., 1986, NaunynSchmiedeberg's Arch Pharmacol 334: 234-245 and references cited therein.

rats = assay: In vivo test: behavior, spontaneous motor activity (distance traveled in motility meter); set-up: species or system rat; conditions: n=4; for motoractivity in the behavioral assay: 100 μmol/kg s.c., 0-60 min
[2] = tested on: serotonin in the striatum; assay: In vivo test: neurochemistry, serotonin (5-HT) in the striatum; set-up: species or system rat; conditions: n=4
Text: as §1, §2

[3] = tested on: rats pretreated with d-amphetamine; assay: In vivo test: behavior, d-amphetamine induced hyperactivity; set-up: species or system rat; conditions: 100 μmol/kg s.c.; d-amphetamine 1.5 mg/kg s.c. pretreatment, n=4

SMILES | 3,4-dihydroxy-phenylacetic acid in the striatum [1] | motoractivity in the behavioral assay (rats) | melting point | further results
CCCN1CC[C@H](c2cccc(S(C)(=O)=O)c2)[C@H](C)C1 (relative stereo) [Example 4, cis-4-(3-Methanesulfonyl-phenyl)-3-methyl-1-propyl-piperidine] | 1884±98 ng/g tissue | 4948±577 cm/60 min | – | –
CCCN1CCN(c2cccc(C(F)(F)F)c2)CC1 [1-propyl-4-(3-triflouro-methyl-phenyl)-piperazine, reference compound] | – | – | – | serotonin in the striatum ([2]; 50 μmol/kg s.c.): 308±18 ng/g tissue; motoractivity in the behavioral assay (behavioral inhibition) (rats; 50 μmol/kg s.c.): 271±137 cm/60 min
CCCN1[C@H](C)CN(c2cccc(C(F)(F)F)c2)C[C@@H]1C [Example 2, cis-2,6-Dimethyl-1-propyl-4-(3-trifluoro-methyl-phenyl)-piperazine] | 1388±60 ng/g tissue | 3619±483 cm/60 min | – | serotonin in the striatum ([2]; 100 μmol/kg s.c.): 419±23 ng/g tissue
CCCN1[C@H](C)CN(c2cccc(S(C)(=O)=O)c2)C[C@@H]1C [Example 3, cis-4-(3-Methanesulfonyl-phenyl)-2,6-dimethyl-1-propyl-piperazine] | 3140±169 ng/g tissue | – | – | motor activity (rats; 100 μmol/kg, 30-60 min post injection): 253±73 cm/30 min; d-amphetamine induced hyperactivity [3]: 2492±530 cm/60 min
CCCN1CC[C@H](c2cccc(S(C)(=O)=O)c2)[C@H](C)C1 (relative stereo) (as salt: HCl) [Example 4, cis-4-(3-Methanesulfonyl-phenyl)-3-methyl-1-propyl-piperidine] | – | – | 197 °C | –
CCCN1[C@H](C)CN(c2cccc(S(C)(=O)=O)c2)C[C@@H]1C (as salt: HCl) [Example 3, cis-4-(3-Methanesulfonyl-phenyl)-2,6-dimethyl-1-propyl-piperazine] | – | – | 233 °C | –
